In PMC7732025 (Archives of pharmacal research, 2013):
pEC50: −log10 of the molar value.

Experiments:
[1] = test system: HIV-1; test: Anti-HIV-1 assay in activated primary human PBM cells; assay type: cell-based, human immunodeficiency virus type 1; conditions: for pEC50: read-out: Anti-HIV-1 activity in human PBM cells EC50
[2] = Cytotoxic assay, primary human PBM cells; assay type: cell-based; conditions: human, primary human PBM cells
[3] = test system: primary human PBM cells; test: Cytotoxic assay, primary human PBM cells; assay type: cell-based; conditions: primary human PBM cells (lymphocytes)
[4] = Cytotoxic assay, VERO cells; assay type: cell-based; conditions: African green monkey
[5] = test system: VERO cells; test: Cytotoxic assay, VERO cells; assay type: cell-based
[6] = in vitro; conditions: human, CEM cells
[7] = test system: CEM cells

Structure (SMILES)	pEC50 [1]	IC50 at 5 day [2] [µM]	toxicity in primary human PBM cells (in words) [3]	IC50 at 5 day [4] [µM]	toxicity in VERO cells (in words) [5]	IC50 at 5 day [6] [µM]	toxicity in CEM cells (in words) [7]	anti-HIV-1 activity (in words) [1]
CC(=NNC(=O)CN1c2c(-c3ccccc3)n[nH]c2-c2ccccc2S1(=O)=O)c1cccs1 [5a, 2-(5,5-Dioxido-3-phenylbenzo[e]pyrazolo[4,3-c][1,2]thiazin-4(1H)-yl)-N′-(1-(thiophen-2-yl)ethylidene)acetohydrazide]	4.95	88	no toxicity	77.2	no toxicity	23.3	–	–
CC(=NNC(=O)CN1c2c(-c3ccccc3)n[nH]c2-c2ccccc2S1(=O)=O)c1sccc1C [5b, 2-(5,5-Dioxido-3-phenylbenzo[e]pyrazolo[4,3-c][1,2]thiazin-4(1H)-yl)-N′-(1-(3-methylthiophen-2-yl)ethylidene)acetohydrazide]	4.94	56.2	–	75.3	–	13.1	–	–
CC(=NNC(=O)CN1c2c(-c3ccccc3)n[nH]c2-c2ccccc2S1(=O)=O)c1ccsc1 [5c, 2-(5,5-Dioxido-3-phenylbenzo[e]pyrazolo[4,3-c][1,2]thiazin-4(1H)-yl)-N′-(1-(thiophen-3-yl)ethylidene)acetohydrazide]	–	73.2	no toxicity	78.7	no toxicity	10.7	–	–
CC(=NNC(=O)CN1c2c(-c3ccccc3)n[nH]c2-c2ccccc2S1(=O)=O)c1cc(C)sc1C [5d, N′-(1-(2,5-dimethylthiophen-3-yl)ethylidene)-2-(5,5-dioxido-3-phenylbenzo[e]pyrazolo[4,3-c][1,2]thiazin-4(1H)-yl)acetohydrazide]	–	36.5	–	44.4	–	17.6	–	–
CC(=NNC(=O)CN1c2c(-c3ccccc3)n[nH]c2-c2ccccc2S1(=O)=O)c1sccc1Cl [5e, N′-(1-(3-chlorothiophen-2-yl)ethylidene)-2-(5,5-dioxido-3-phenylbenzo[e]pyrazolo[4,3-c][1,2]thiazin-4(1H)-yl)acetohydrazide]	–	69.1	non-toxic	> 100	non-toxic	16.8	–	–
CC(=NNC(=O)CN1c2c(-c3ccccc3)n[nH]c2-c2ccccc2S1(=O)=O)c1sccc1Br [5f, N′-(1-(3-bromothiophen-2-yl)ethylidene)-2-(5,5-dioxido-3-phenylbenzo[e]pyrazolo[4,3-c][1,2]thiazin-4(1H)-yl)acetohydrazide]	–	42.8	–	> 100	–	19.6	–	–
CC(=NNC(=O)CN1c2c(-c3ccccc3)n[nH]c2-c2ccccc2S1(=O)=O)c1ccc(Cl)s1 [5g, N′-(1-(5-chlorothiophen-2-yl)ethylidene)-2-(5,5-dioxido-3-phenylbenzo[e]pyrazolo[4,3-c][1,2]thiazin-4(1H)-yl)acetohydrazide]	–	13.9	–	57.4	–	8.4	–	–
CC(=NNC(=O)CN1c2c(-c3ccccc3)n[nH]c2-c2ccccc2S1(=O)=O)c1sc(N)nc1C [5h, N′-(1-(2-amino-4-methylthiazol-5-yl)ethylidene)-2-(5,5-dioxido-3-phenylbenzo[e]pyrazolo[4,3-c][1,2]thiazin-4(1H)-yl)acetohydrazide]	–	> 100	no toxicity	> 100	no toxicity	> 100	no toxicity	–
CC(=NNC(=O)CN1c2c(-c3ccccc3)n[nH]c2-c2ccccc2S1(=O)=O)c1cc(Cl)sc1Cl [5i, N′-(1-(2,5-dichlorothiophen-3-yl)ethylidene)-2-(5,5-dioxido-3-phenylbenzo[e]pyrazolo[4,3-c][1,2]thiazin-4(1H)-yl)acetohydrazide]	–	12.2	toxic	38.8	toxic	14.4	toxic	–
CC(=NNC(=O)CN1c2c(-c3ccccc3)n[nH]c2-c2ccccc2S1(=O)=O)c1cc(C)cs1 [5j, 2-(5,5-Dioxido-3-phenylbenzo[e]pyrazolo[4,3-c][1,2]thiazin-4(1H)-yl)-N′-(1-(4-methylthiophen-2-yl)ethylidene)acetohydrazide]	4.88	> 100	–	6	–	18.3	–	–
CC(=NNC(=O)CN1c2c(-c3ccccc3)n[nH]c2-c2ccccc2S1(=O)=O)c1cc2ccccc2oc1=O [5k, 2-(5,5-Dioxido-3-phenylbenzo[e]pyrazolo[4,3-c][1,2]thiazin-4(1H)-yl)-N′-(1-(2-oxo-2H-chromen-3-yl)ethylidene)acetohydrazide]	–	82.7	non-toxic	> 100	non-toxic	27.8	–	–
CC(=NNC(=O)CN1c2c(-c3ccccc3)n[nH]c2-c2ccccc2S1(=O)=O)c1ccc2ccccc2c1 [5l, 2-(5,5-Dioxido-3-phenylbenzo[e]pyrazolo[4,3-c][1,2]thiazin-4(1H)-yl)-N′-(1-(naphthalen-2-yl)ethylidene)acetohydrazide]	–	12.2	–	< 1	–	24.2	–	–
CC(=NNC(=O)CN1c2c(-c3ccccc3)n[nH]c2-c2ccccc2S1(=O)=O)c1ccc(C)s1 [5m, 2-(5,5-Dioxido-3-phenylbenzo[e]pyrazolo[4,3-c][1,2]thiazin-4(1H)-yl)-N′-(1-(5-methylthiophen-2-yl)ethylidene)acetohydrazide]	–	62.3	–	30.6	–	13.8	–	–
CC(=NNC(=O)CN1c2c(-c3ccccc3)n[nH]c2-c2ccccc2S1(=O)=O)c1cc2ccccc2o1 [5n, N′-(1-(benzofuran-2-yl)ethylidene)-2-(5,5-dioxido-3-phenylbenzo[e]pyrazolo[4,3-c][1,2]thiazin-4(1H)-yl)acetohydrazide]	–	> 100	–	23	–	22.4	–	inactive
CC(=NNC(=O)CN1c2c(-c3ccccc3)n[nH]c2-c2ccccc2S1(=O)=O)c1ccc[nH]1 [5o, N′-(1-(1H-pyrrol-2-yl)ethylidene)-2-(5,5-dioxido-3-phenylbenzo[e]pyrazolo[4,3-c][1,2]thiazin-4(1H)-yl)acetohydrazide]	–	41.4	–	22.3	–	20	–	–
CC(=NNC(=O)CN1c2c(-c3ccccc3)n[nH]c2-c2ccccc2S1(=O)=O)c1ccc(Br)s1 [5p, N′-(1-(5-bromothiophen-2-yl)ethylidene)-2-(5,5-dioxido-3-phenylbenzo[e]pyrazolo[4,3-c][1,2]thiazin-4(1H)-yl)acetohydrazide]	–	10.5	–	18.1	–	< 1	–	–
CC(=NNC(=O)CN1c2c(-c3ccccc3)n[nH]c2-c2ccccc2S1(=O)=O)c1ccc2c(c1)OCCO2 [5q, N′-(1-(2,3-dihydrobenzo[b][1,4]dioxin-6-yl)ethylidene)-2-(5,5-dioxido-3-phenylbenzo[e]pyrazolo[4,3-c][1,2]thiazin-4(1H)-yl)acetohydrazide]	–	67.1	non-toxic	> 100	non-toxic	23.9	–	–
CC(=NNC(=O)CN1c2c(-c3ccccc3)n[nH]c2-c2ccccc2S1(=O)=O)c1ccc([N+](=O)[O-])s1 [5r, 2-(5,5-Dioxido-3-phenylbenzo[e]pyrazolo[4,3-c][1,2]thiazin-4(1H)-yl)-N′-(1-(5-nitrothiophen-2-yl)ethylidene)acetohydrazide]	–	85	–	43.6	–	5	–	–
CC(=NNC(=O)CN1c2c(-c3ccccc3)n[nH]c2-c2ccccc2S1(=O)=O)c1ccc(C)o1 [5s, 2-(5,5-Dioxido-3-phenylbenzo[e]pyrazolo[4,3-c][1,2]thiazin-4(1H)-yl)-N′-(1-(5-methylfuran-2-yl)ethylidene)acetohydrazide]	–	53.8	–	> 100	–	15.4	–	inactive
CC(=NNC(=O)CN1c2c(-c3ccccc3)n[nH]c2-c2ccccc2S1(=O)=O)c1cc(C)oc1C [5t, N′-(1-(2,5-dimethylfuran-3-yl)ethylidene)-2-(5,5-dioxido-3-phenylbenzo[e]pyrazolo[4,3-c][1,2]thiazin-4(1H)-yl)acetohydrazide]	–	17.3	–	41.4	–	9.9	–	–
CC(=NNC(=O)CN1c2c(-c3ccccc3)n[nH]c2-c2ccccc2S1(=O)=O)c1nccs1 [5u, 2-(5,5-Dioxido-3-phenylbenzo[e]pyrazolo[4,3-c][1,2]thiazin-4(1H)-yl)-N′-(1-(thiazol-2-yl)ethylidene)acetohydrazide]	–	15.7	–	43.1	–	8.2	–	–
CC(=NNC(=O)CN1c2c(-c3ccccc3)n[nH]c2-c2ccccc2S1(=O)=O)c1ccncc1 [5v, 2-(5,5-Dioxido-3-phenylbenzo[e]pyrazolo[4,3-c][1,2]thiazin-4(1H)-yl)-N′-(1-(pyridin-4-yl)ethylidene)acetohydrazide]	–	75.6	–	84.1	–	34.5	–	inactive
O=C(CN1c2c(-c3ccccc3)n[nH]c2-c2ccccc2S1(=O)=O)NN=Cc1cccs1 [5w, 2-(5,5-Dioxido-3-phenylbenzo[e]pyrazolo[4,3-c][1,2]thiazin-4(1H)-yl)-N′-(thiophen-2-ylmethylene)acetohydrazide]	–	30.6	no toxicity	41.8	no toxicity	13.9	–	–
